Laboratory results taken from PubChem BioAssay (NCI).
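Protocol summary: plate cells (96-well), add compound at 5 concentrations, incubate 48 h, interpolate endpoints linearly. Abbreviation: GI50, concentration required for 50% inhibition of growth. TGI: concentration producing complete growth inhibition.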

Columns and labels:
Assay in all cases: DTP human tumour cell line panel, 48 h
[1] = tested on: 786-0 renal
[2] = tested on: A498 renal
[3] = tested on: A549 NSCLC
[4] = tested on: ACHN renal
[5] = tested on: BT-549 breast
[6] = tested on: CAKI-1 renal
[7] = tested on: CCRF-CEM leukemia
[8] = tested on: COLO 205 colon
[9] = tested on: DU-145 prostate
[10] = tested on: EKVX NSCLC
[11] = tested on: HCT-116 colon
[12] = tested on: HCT-15 colon
[13] = tested on: HL-60(TB) leukemia
[14] = tested on: HOP-62 NSCLC
[15] = tested on: HOP-92 NSCLC
[16] = tested on: HS 578T breast
[17] = tested on: HT29 colon
[18] = tested on: IGROV1 ovarian
[19] = tested on: K-562 leukemia
[20] = tested on: KM12 colon
[21] = tested on: LOX IMVI melanoma
[22] = tested on: M14 melanoma
[23] = tested on: MALME-3M melanoma
[24] = tested on: MCF7 breast
[25] = tested on: MDA-MB-231 breast
[26] = tested on: MDA-MB-435
[27] = tested on: MDA-N
[28] = tested on: MOLT-4 leukemia
[29] = tested on: NCI-H226 lung
[30] = tested on: NCI-H23 lung
[31] = tested on: NCI-H522 lung
[32] = tested on: NCI/ADR-RES ovarian
[33] = tested on: OVCAR-3 ovarian
[34] = tested on: OVCAR-4 ovarian
[35] = tested on: OVCAR-5 ovarian
[36] = tested on: OVCAR-8 ovarian
[37] = tested on: PC-3 prostate
[38] = tested on: RPMI-8226 leukemia
[39] = tested on: RXF 393 renal
[40] = tested on: SF-268 CNS
[41] = tested on: SF-295 CNS
[42] = tested on: SK-MEL-2 melanoma
[43] = tested on: SK-MEL-28 melanoma
[44] = tested on: SK-MEL-5 melanoma
[45] = tested on: SK-OV-3 ovarian
[46] = tested on: SN12C renal
[47] = tested on: SNB-19 CNS
[48] = tested on: SNB-75 CNS
[49] = tested on: SW-620 colon
[50] = tested on: T-47D breast
[51] = tested on: TK-10 renal
[52] = tested on: U251 CNS
[53] = tested on: UACC-257 melanoma
[54] = tested on: UACC-62 melanoma
[55] = tested on: UO-31 renal
[56] = tested on: HCC-2998 colon
[57] = tested on: NCI-H460 lung
[58] = tested on: SF-539 CNS

## CN1CCCC1c1cccnc1.O=C(O)c1ccccc1O.O=C([O-])c1ccccc1[OH2+].O=C([O-])c1ccccc1[OH2+].O=C([O-])c1ccccc1[OH2+].[Cu+2] (stereo unspecified)
[1]
  GI50: > 100 µM
  TGI: > 100 µM
[2]
  GI50: 31.3 µM
  TGI: 76.1 µM
[3]
  GI50: 78.9 µM
  TGI: > 100 µM
[4]
  GI50: > 100 µM
  TGI: > 100 µM
[5]
  GI50: > 100 µM
  TGI: > 100 µM
[6]
  GI50: > 100 µM
  TGI: > 100 µM
[7]
  GI50: > 100 µM
  TGI: > 100 µM
[8]
  GI50: > 100 µM
  TGI: > 100 µM
[9]
  GI50: > 100 µM
  TGI: > 100 µM
[10]
  GI50: > 100 µM
  TGI: > 100 µM
[11]
  GI50: > 100 µM
  TGI: > 100 µM
[12]
  GI50: > 100 µM
  TGI: > 100 µM
[13]
  GI50: > 100 µM
  TGI: > 100 µM
[14]
  GI50: > 100 µM
  TGI: > 100 µM
[15]
  GI50: > 100 µM
  TGI: > 100 µM
[16]
  GI50: > 100 µM
  TGI: > 100 µM
[17]
  GI50: > 100 µM
  TGI: > 100 µM
[18]
  GI50: 91.1 µM
  TGI: > 100 µM
[19]
  GI50: > 100 µM
  TGI: > 100 µM
[20]
  GI50: > 100 µM
  TGI: > 100 µM
[21]
  GI50: > 100 µM
  TGI: > 100 µM
[22]
  GI50: > 100 µM
  TGI: > 100 µM
[23]
  GI50: > 100 µM
  TGI: > 100 µM
[24]
  GI50: 45.3 µM
  TGI: > 100 µM
[25]
  GI50: > 100 µM
  TGI: > 100 µM
[26]
  GI50: > 100 µM
  TGI: > 100 µM
[27]
  GI50: > 100 µM
  TGI: > 100 µM
[28]
  GI50: > 100 µM
  TGI: > 100 µM
[29]
  GI50: > 100 µM
  TGI: > 100 µM
[30]
  GI50: > 100 µM
  TGI: > 100 µM
[31]
  GI50: > 100 µM
  TGI: > 100 µM
[32]
  GI50: > 100 µM
  TGI: > 100 µM
[33]
  GI50: > 100 µM
  TGI: > 100 µM
[34]
  GI50: 56.1 µM
  TGI: > 100 µM
[35]
  GI50: > 100 µM
  TGI: > 100 µM
[36]
  GI50: > 100 µM
  TGI: > 100 µM
[37]
  GI50: > 100 µM
  TGI: > 100 µM
[38]
  GI50: > 100 µM
  TGI: > 100 µM
[39]
  GI50: > 100 µM
  TGI: > 100 µM
[40]
  GI50: > 100 µM
  TGI: > 100 µM
[41]
  GI50: > 100 µM
  TGI: > 100 µM
[42]
  GI50: > 100 µM
  TGI: > 100 µM
[43]
  GI50: > 100 µM
  TGI: > 100 µM
[44]
  GI50: 33.3 µM
  TGI: > 100 µM
[45]
  GI50: > 100 µM
  TGI: > 100 µM
[46]
  GI50: > 100 µM
  TGI: > 100 µM
[47]
  GI50: 39.6 µM
  TGI: > 100 µM
[48]
  GI50: > 100 µM
  TGI: > 100 µM
[49]
  GI50: > 100 µM
  TGI: > 100 µM
[50]
  GI50: > 100 µM
  TGI: > 100 µM
[51]
  GI50: > 100 µM
  TGI: > 100 µM
[52]
  GI50: > 100 µM
  TGI: > 100 µM
[53]
  GI50: > 100 µM
  TGI: > 100 µM
[54]
  GI50: > 100 µM
  TGI: > 100 µM
[55]
  GI50: > 100 µM
  TGI: > 100 µM

## O=C1c2ccccc2C(=Nc2ccc3ccccc3c2)C1(C1=C(c2ccccc2)C(=Nc2ccc3ccccc3c2)c2ccccc21)c1ccccc1 (stereo unspecified)
[1]
  TGI: > 100 µM
[3]
  TGI: > 100 µM
[4]
  TGI: 15 µM
[5]
  TGI: 73.3 µM
[6]
  TGI: > 100 µM
[7]
  TGI: > 100 µM
[8]
  TGI: > 100 µM
[9]
  TGI: > 100 µM
[10]
  TGI: > 100 µM
[56]
  TGI: > 63.4 µM
[11]
  TGI: > 100 µM
[12]
  TGI: > 23.8 µM
[13]
  TGI: > 29 µM
[14]
  TGI: > 100 µM
[15]
  TGI: > 100 µM
[16]
  TGI: > 100 µM
[17]
  TGI: > 100 µM
[18]
  TGI: > 100 µM
[19]
  TGI: > 43.5 µM
[20]
  TGI: > 42.6 µM
[21]
  TGI: > 100 µM
[22]
  TGI: > 86.8 µM
[24]
  TGI: > 65.6 µM
[25]
  TGI: > 100 µM
[26]
  TGI: > 87.3 µM
[27]
  TGI: > 59.1 µM
[28]
  TGI: 7.81 µM
[29]
  TGI: > 44.4 µM
[30]
  TGI: > 31.3 µM
[57]
  TGI: > 100 µM
[31]
  TGI: > 100 µM
[32]
  TGI: > 100 µM
[33]
  TGI: > 100 µM
[34]
  TGI: > 100 µM
[35]
  TGI: > 100 µM
[36]
  TGI: > 94.1 µM
[37]
  TGI: > 100 µM
[38]
  TGI: 18.2 µM
[39]
  TGI: > 100 µM
[40]
  TGI: > 100 µM
[41]
  TGI: > 100 µM
[58]
  TGI: > 100 µM
[42]
  TGI: > 69.5 µM
[43]
  TGI: > 100 µM
[44]
  TGI: 7.47 µM
[45]
  TGI: > 100 µM
[46]
  TGI: > 100 µM
[47]
  TGI: > 100 µM
[48]
  TGI: > 70.4 µM
[49]
  TGI: > 100 µM
[50]
  TGI: > 100 µM
[51]
  TGI: > 100 µM
[52]
  TGI: > 100 µM
[53]
  TGI: > 100 µM
[54]
  TGI: > 53.5 µM
[55]
  TGI: 37 µM
